Where two headings read alike, the source gives them in different places.
Key:
[1] = molecular target: acidic FGF (aFGF) (Homo sapiens, UniProt P05230); assay: biochemical; settings: for stabilization of aFGF against heat-induced aggregation: 0.5X and 10X ligand, FIGS. 6-8; for Approx. Molar Ratio (ligand to aFGF at 50% inhibition of aggregation): Table 1
Source text: Stabilization of aFGF can be determined by several independent methods including turbidity measurements, spectroscopic techniques, maintenance of protein mass, mitogenic activity and copper catalyzed oxidation. Since acidic fibroblast growth factor is unstable at physiological temperatures (undergoing large structural changes, including aggregation, which results in a loss of mitogenic and wound healing activity), human aFGF stability can be monitored by evaluating the turbidity of the pharmaceutical composition by following the kinetics of temperature induced aggregation of unfolded protein.
The kinetics of protein aggregation (stabilization) are monitored by the degree of light scattering at about OD350 nm using a Perkin Elmer Lambda 6 UV-visible spectrophotometer equipped with a six-cuvette holder. Temperature is controlled by circulating a water/ethylene glycol solution through the cell holder. About 0.9 ml of a PBS solution (6 mM sodium phosphate, 120 mM NaCl, pH 7.2) was placed into a cuvette and incubated at the appropriate temperature within the spectrophotometer. Once equilibrated, 100 μl of a 1 mg/ml aFGF solution containing the appropriate amount of ligand (stabilizer) is added to the cuvette and mixed manually by inversion. The change in optical density at 350 nm over time is continuously monitored. A dead time of 30s was present due to the mixing of the six samples in each experiment.
To examine the interactions between aFGF and heparin, a spectrophotometric turbidity assay was developed. This technique monitors the structural stability of aFGF by following the kinetics of temperature induced aggregation of unfolded protein by measurement of the degree of light scattering (turbidity) at 350 nm. The kinetics of protein aggregation were monitored by the degree of light scattering at 350 nm using a Perkin Elmer Lambda 6 UV-visible spectrophotometer equipped with a six-cuvette holder. Temperature was controlled by circulating a water/ethylene glycol solution through the cell holder. A PBS solution, 0.9 ml, (6 mM phosphate, 120 mM NaCl pH 7.2) was placed into a cuvette and incubated at the appropriate temperature within the spectrophotometer. Once equilibrated, 100 μl of a 1 mg/ml aFGF solution containing the appropriate amount of ligand was added to the cuvette and mixed manually by inversion. The change in optical density at 350 nm over time was continuously monitored. A dead time of 30s was present due to the mixing of the six samples in each experiment.
Samples contained 100 μg/ml aFGF in a PBS buffer at pH 7.2 with the indicated ratio of heparin to aFGF (wt:wt).
Samples contained 100 μg/ml protein in a PBS buffer, pH 7.2 with (a) no heparin, (b) 1.5 μg/ml, (c) 3 μg/ml, (d) 5 μg/ml, (e) 10 μg/ml and (f) 50 μg/ml heparin. Only representative data points are shown for clarity. […] Using the initial linear portion of the slope of turbidity vs. time plots as a measure of the rate of aggregation, the effect of polyanion concentration can be quantitatively characterized. The Y-axis represents the maximum rate of turbidity formation (ΔOD350 nm/min) normalized to sample (a) containing no heparin. The curve is drawn through data points for clarity only. The IC50 is the concentration of ligand at which the rate of aggregation is 50% of the control sample.

[2] = molecular target: T1, aFGF (Homo sapiens, UniProt P05230); assay: Thermal denaturation (Tm) of aFGF by circular dichroism; format: biochemical; settings: for Tm of aFGF, circular dichroism: 3X ligand by weight
T1 construct: The recombinant derived, 140 amino add form is the preferred form of aFGF; N-terminal methionine (MetHaFGF); made in house; host or cells: microbial cells (preferred embodiment)
Method: Circular Dichroism (CD) spectra are measured with an AVIV 62 DS spectropolarimeter. Samples of aFGF at about 100 μg/ml in a PBS buffer (6 mM sodium phosphate, 120 mM NaCl, pH 7.2) containing various ligands are placed into 1 mm pathlength cells and the cell temperature is controlled by circulating a water/ethylene glycol mixture through the cell holder. Thermal denaturation is carded out under computer control by increasing the temperature of the water bath in 2° C. increments, followed by a two-minute equilibration period at each temperature to allow the sample to reach thermal equilibrium. Reproducibility of the midpoint of these temperature melting curves (Tm) is ±2° C.
The maximum Tm values induced by 12 different ligands as determined by circular dichroism measurements at 228 nm are summarized in the first column of Table II. All of these ligands stabilize aFGF by 15°-25° C. in a manner similar to that originally observed with heparin. […] Furthermore, sulfate unions are found near analogous residues in the crystal structure of basic FGF, Eriksson et al., Proc. Natl. Acad. Sd. USA 88:3441-3445 (1991); Zhang et al., Proc. Natl. Acad. Sci. USA 88:3446-3450 (1991). Consequently, it seemed important to examine the ability of these ligands to stabilize aFGF during thermal denaturation as monitored by both fluorescence and circular dichroism. The Tm value of aFGF increased from 27° C. to 43° C. (fluorescence)and 45° C. to 51° C. (CD) when a 100 molar excess (3X by weight) of (IrCl6)^-3 was present. Similarly, sulfate union (120 mM) produced a species that was even more dramatically stabilized, melting at 57° C. (CD).
^(a) Thermal melting temperatures were measured by circular dichroism
Samples contained […] aFGF in PBS buffer pH 7.2 with excess ligand
(1-3× by weight except for 120 mM sodium sulfate and 10 mM

[3] = 40° C., 100 μg/ml aFGF, PBS pH 7.2, read-out: IC50: concentration of ligand at which the rate of heat-induced aggregation of aFGF is 50% of the sample without ligand (converted)
[4] = 40° C., 100 μg/ml aFGF, PBS pH 7.2

T1 sequence (P05230 16-155 limits assumed): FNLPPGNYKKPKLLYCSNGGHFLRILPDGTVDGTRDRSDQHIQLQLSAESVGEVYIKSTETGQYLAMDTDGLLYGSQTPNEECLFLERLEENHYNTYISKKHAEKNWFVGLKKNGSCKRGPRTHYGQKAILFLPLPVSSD
Sequence of acidic FGF (aFGF) (P05230 16-155 limits assumed): as above

Compound	stabilization of aFGF against heat-induced aggregation ([1]; 40° C.)	IC50 [1, 3]	Approx. Molar Ratio (ligand to aFGF at 50% inhibition of aggregation) ([1]; 40° C.)	also measured
polyaspartic acid [poly-Asp]	significantly enhance the thermal stability of aFGF			
Nc1ncnc2c1ncn2[C@@H]1O[C@H](COP(=O)(O)OP(=O)(O)OP(=O)(O)OP(=O)(O)OP(=O)(O)OP(=O)(O)OC[C@H]2O[C@@H](n3cnc4c(N)ncnc43)[C@H](O)[C@@H]2O)[C@@H](O)[C@H]1O [Ap6A]		3 µM	0.5	
keratan sulfate	much less effective			
Nc1ncnc2nc[nH]c12.O=S(=O)(O)O [adenine sulfate]	actually alestabilize the growth factor			
propyl-hydroxy-β- cyclodextrin				stabilization of aFGF, circular dichroism ([2]; 3X by weight): did not stabilize addic FGF; Tm of aFGF, circular dichroism [2]: 47 °C
chondroitin sulfate C				effect on rate and extent of aggregation of aFGF ([1]; 40° C., 0.5X ligand by weight): only a slight effect; effect on rate and extent of aggregation of aFGF ([1]; 40° C., 10X ligand by weight): significantly slows down the rate and extent of aggregation
Nc1ncnc2c1ncn2[C@@H]1O[C@H](COP(=O)(O)OP(=O)(O)O)[C@@H](O)[C@H]1O [ADP]		200 µM	33	
Nc1ncnc2c1ncn2[C@@H]1O[C@H](COP(=O)(O)OP(=O)(O)OP(=O)(O)OC[C@H]2O[C@@H](n3cnc4c(N)ncnc43)[C@H](O)[C@@H]2O)[C@@H](O)[C@H]1O [Ap3A]		250 µM	42	
chondroitin sulfate A				effect on rate and extent of aggregation of aFGF ([1]; 40° C., 0.5X ligand by weight): only a slight effect; effect on rate and extent of aggregation of aFGF ([1]; 40° C., 10X ligand by weight): significantly slows down the rate and extent of aggregation
N.N.O=S(=O)(O)O [Ammonium sulfate, ammonium sulfate]			80	number of ligand molecules per aFGF (molar ratio) required for stabilization ([1]; 40° C.): about 80; IC50: concentration of ligand at which the rate of heat-induced aggregation of aFGF is 50% of the sample without ligand [1, 4]: 70 µg/mL
Chondroitin Sulfate B				IC50: concentration of ligand at which the rate of heat-induced aggregation of aFGF is 50% of the sample without ligand [1, 4]: 50 µg/mL; effect on rate and extent of aggregation of aFGF ([1]; 40° C., 0.5X ligand by weight): only a slight effect; effect on rate and extent of aggregation of aFGF ([1]; 40° C., 10X ligand by weight): significantly slows down the rate and extent of aggregation
sulodexide [reference compound]	dramatically stabilize aFGF from heat-induced aggregation			
Fucoidin	dramatically stabilize aFGF from heat-induced aggregation			IC50: concentration of ligand at which the rate of heat-induced aggregation of aFGF is 50% of the sample without ligand [1, 4]: 6 µg/mL
Nc1ncnc2c1ncn2[C@@H]1O[C@H](COP(=O)(O)OP(=O)(O)OP(=O)(O)OP(=O)(O)OP(=O)(O)OC[C@H]2O[C@@H](n3cnc4c(N)ncnc43)[C@H](O)[C@@H]2O)[C@@H](O)[C@H]1O [Ap5A]		10 µM	1.6	
polyvinyl sulfate	much less effective			
Nc1ncnc2c1ncn2[C@@H]1O[C@H](COP(=O)(O)OP(=O)(O)OP(=O)(O)OP(=O)(O)O)[C@@H](O)[C@H]1O [AT4P]		10 µM	1.6	
O=C(O)[C@H](O)[C@@H](O)[C@H](O[C@@H]1O[C@H](CO)[C@H](O)[C@H](O)[C@H]1O)[C@H](O)CO [Lactobionic acid]		502 µM	80	number of ligand molecules per aFGF (molar ratio) required for stabilization ([1]; 40° C.): about 80
Nc1ncnc2c1ncn2[C@@H]1O[C@H](COP(=O)(O)OP(=O)(O)OP(=O)(O)OP(=O)(O)OC[C@H]2O[C@@H](n3cnc4c(N)ncnc43)[C@H](O)[C@@H]2O)[C@@H](O)[C@H]1O [Ap4A]		30 µM	5	
OC[C@H]1O[C@@H]2O[C@H]3[C@H](O)[C@@H](O)[C@@H](O[C@H]4[C@H](O)[C@@H](O)[C@@H](O[C@H]5[C@H](O)[C@@H](O)[C@@H](O[C@H]6[C@H](O)[C@@H](O)[C@@H](O[C@H]7[C@H](O)[C@@H](O)[C@@H](O[C@H]8[C@H](O)[C@@H](O)[C@@H](O[C@H]1[C@H](O)[C@H]2O)O[C@@H]8CO)O[C@@H]7CO)O[C@@H]6CO)O[C@@H]5CO)O[C@@H]4CO)O[C@@H]3CO [β-cyclodextrin (sulfur content zero), β-cyclodextrin]				Tm of aFGF, circular dichroism [2]: 46 °C
Nc1ncnc2c1ncn2[C@@H]1O[C@H](COP(=O)(O)OP(=O)(O)OP(=O)(O)O)[C@@H](O)[C@H]1O [ATP]	significantly enhance the thermal stability of aFGF		5	IC50 [1]: 30 µM
poly-glutamic acid	significantly enhance the thermal stability of aFGF			

Reference: patent US5348941A, “Stabilizers for fibroblast growth factors” (Merck & Co., Inc., priority 1992, dated 1994)
